Measurements taken from patent publication US20220306623A1, “PYRIDYL OR PYRIMIDYL MTOR KINASE INHIBITORS” (GLAXOSMITHKLINE INTELLECTUAL PROPERTY DEVELOPMENT LIMITED, priority 2019, published 2022).

Columns and labels:
[1] = system: type I collagen deposition in primary lung fibroblasts derived from human tissue; experiment: High throughput type I collagen deposition (scar-in-a-jar) high content screening assay; assay type: cell-based; conditions: Primary lung fibroblast, 72 h, human pulmonary fibroblasts, 384-well, TGF-β 1 ng/ml 72 h, total collagen area, read-out: mean pIC50, high throughput type I collagen deposition (scar-in-a-jar) (converted)
Protocol: Highthroughput, cellular type I collagen deposition was measured by adapting a published method; scar-in-a-jar (Chen et al., 2009) to primary lung fibroblasts derived from human tissue and combining with high content analysis to permit fluorescent quantification of collagen deposited in the extracellular matrix (ECM). The human biological samples were sourced ethically and their research use was in accordance with the terms of the informed consents.
Test compounds were dissolved in 100% DMSO to give 10 mM (stocks) and further diluted to give half log dilutions to generate an 11 point concentration response curve. 1 ul was transferred to 384-well plates (Greiner Group, Kremsmunster, Austria, Catalogue No Greine 781280r).
Human pulmonary fibroblasts were maintained in DMEM media (Gibco, Catalogue No 21969) supplemented with 4 mM L-glutamine (Gibco Catalogue No 25030-024) and 10% heat inactivated FBS (Gibco, Catalogue No 10099-141) at 37° C. in 10% CO2. Cells were harvested and resuspended at 4×10^6 cells/ml in a T175 cell culture flask (BD Falcom, Catalogue No: 353112) containing 50 mL of culture media. After 4 days 37° C. in 10% CO2, cells were harvested and seeded at 4000 cells per well ([…]) into 384-well plates (BD Falcon, Catalogue No 353962Greiner) in assay media (0.4% heat inactivated FBS, 4 mM L-glutamine). Plates were sealed with breathable seals (Sigma, Catalogue No. BEM-1). Assay plates were incubated for 72 h at 37° C. in 10% CO2.
Assay media was supplemented with 112.5 mg/ml Ficoll 70 (Sigma, Catalogue No F2878), 75 mg/ml Ficoll 400 (Sigma, Catalogue No F4375) and 50 µg/ml ascorbic acid (Sigma, Catalogue No A8960). 30 μL assay media were added to 1 l compound ([…] compound concentration in 1% DMSO). Diluted compounds (10 μL) were transferred to plates containing cells and incubated for 3 h at 37° C. in 10% CO2. Transforming growth factor (TGF)-β (R&D systems, Catalogue No 100-B/CF) was reconstituted to give 10 µg/mL (stock) and further diluted in assay media containing Ficoll and ascorbic acid (1 in 3333). TGF-β was added to cell plates (1 ng/ml final) and cells incubated for 72 h at 37° C. in 10% CO2.
Media was aspirated from cells and 30 µL/well 100% ice-cold methanol added and incubated at RT for 5 min to fix cells. Methanol was aspirated and cells washed with PBS (3×). To block and permeabilise, cells were incubated with PBS containing 1% BSA and 0.1% Triton X 100 for 20 min, followed by PBS wash (3×). Cells were incubated with mouse anti human type I collagen monoclonal antibody (Sigma, Catalogue No C2456) diluted 1:1000 in PBS for 24 h at 4° C. Cells were washed with PBS containing 0.1% Tween-20 (3×) and incubated with secondary alexa fluor 488 goat-anti-mouse antibody (Invitrogen, Catalogue No A11001, 1 in 500 in PBS) and Hoechst 33342 (Sigma, Catalogue No H21492), 1 in 1000 in PBS) for 1 h at RT, prior to washing with PBS containing 0.1% Tween (×4).
Type I collagen immunoreactivity was detected using the INCell 2000 Analyzer (GE Healthcare, INcell 2000) set to excitation and emission wavelengths for DAPI and FITC with laser focus and exposure adjusted to appropriate levels. Images were imported and analysed using Columbus software (Perkin Elmer) and computational algorithms to quantify “total collagen area” and “cell count”.
Data analysis was performed by determining 0/inhibition values for test compounds relative to the minimum (media only) and maximum responses (TGF-βstimulation) with non-linear regression analysis to determine IC50 values for test compounds.

[2] = system: phosphorylated Akt at serine 473 (pAKTs473) in primary human lung fibroblasts; experiment: High throughput phosphorylated Akt (Ser473) in vitro immunoassay (MSD); assay type: cell-based; conditions: Fibroblast, primary human lung fibroblasts (Lonza), 384-well, compound 1 h, PDGF-BB 10 ng/ml 10 min, read-out: mean pIC50, pAKTser473 high throughput immunoassay (converted)
Description: Immunoassay to measure effect of test compounds on phosphorylated Akt at serine 473 (pAKTs473) in primary human lung fibroblasts (Lonza Group Ltd, Basel, Switzerland, Catalogue No. CC-2512) using the MesoScale Discovery (MSD) platform to quantify levels of total Akt and pAKTser473.
Human lung fibroblasts were routinely maintained in fibroblast basal medium supplemented with 2% foetal bovine serum (FBS), 0.1% human fibroblast growth factor (FGF)-B, 0.1% insulin, 0.1% GA-100 (Lonza Group Ltd, Basel, Switzerland, Catalogue No. CC-3132) at 37° C. in 5% CO2 according to the manufacturer's protocol.
For the assay, cells were harvested using Trypsin/EDTA, (Lonza Group Ltd, Basel, Switzerland, Catalogue No. CC-5012), at working concentration of 0.025%, resuspended to give 3×10^5 cells/ml and 50 ul/well seeded into 384-well plates (Greiner Group, Kremsmunster, Austria, Catalogue No. 781091) in media containing 0.4% FBS and incubated o/n at 37° C. in 5% CO2.
Test compounds were dissolved in 100% DMSO to give 10 mM stock solutions and serially diluted to generate an 11-point concentration response curve. Compound were further diluted by […] into 384-well V-bottom polypropylene plates (Greiner Group, Kremsmunster, Austria, Catalogue No. 781280) with media containing 0.4% FBS to give 50 µM top compound concentration in 0.5% DMSO.
Compounds were transferred to 384-well plates contacting cells (0.1% DMSO final) and incubated for 1 h at 37° C. in 5% CO2, prior to stimulation with platelet-derived growth factor (PDGF)-BB (R&D Systems, Catalogue No. 220-BB) at 10 ng/ml (final) for 10 min at RT. Cell assay plates were incubated on ice and treated with lysis buffer (Cell Signalling Technology, Catalogue No. 9806) containing protease and phosphatase inhibitors (Thermo Scientific, Catalogue No. 78444) followed by shaking for 30 min at 4° C.
MSD plates (MSD, MA6000 384-well GAR plate, Catalogue No. L21RA-2) were blocked with blocking buffer containing TBS (MSD, Cat. No. R61TX-1) with 0.5% bovine serum albumin (BSA) (Sigma Aldrich, Cat. No. A7906), 0.1% tween-20 (Sigma Aldrich, Catalogue No. P2287) and coated with rabbit-anti-human pAkt (s473) ab (Cell Signalling Technology, Catalogue No. CST #4060) at RT with shaking, followed by washing (×3) with 1×TBS wash reagent containing 0.1% Tween-20. Cell lysates (30 ul) were added and MSD plates centrifuged at 1000 rpm at 4° C. o/n.
Plates were washed with 1×TBS wash buffer (×3), prior to addition of mouse-anti-human-total Akt ab (1 mg/ml) (Upstate (Milipore), Catalogue No. 05-591) in blocking buffer and shaken at RT for 1 h. After washing with 1×TBS wash buffer (×3), plates were incubated with goat-anti-mouse SULFO-TAG detection ab (MSD, Catalogue No. R32AC-1) (1:500 in blocking buffer) for 1 h at RT. Plates were washed with 1×TBS (×3) and read buffer (2×) (MSD, Catalogue No. R92TC-1) added before detecting electrochemiluminescence (MSD Sector Imager 6000).
Data analysis was performed by determining % inhibition values for test compounds relative to the minimum (+PDGF-BB stimulation) and maximum responses (no PDGF-BB stimulation) with non-linear regression analysis to determine IC50 values for test compounds.

mTOR = target: T1, mTOR (Homo sapiens, UniProt P42345); experiment: mTOR kinobeads competition-binding assay; conditions: HuT-78 cell lysate, bead-immobilized capturing ligand, 2 h at 4° C., mean of multiple experiments; read-out: mean pIC50, mTOR kinobeads assay (converted)
T1 construct: capturing of endogenously expressed target proteins from cell extracts by a bead-immobilized capturing ligand; endogenous in cells; host or cells: HuT-78 cells (ECACC 88041901), cell lysate
Protocol: The affinity of test compounds for mTOR was determined in the mTOR kinobeads assay. This is a competition-binding assay based on the capturing of endogenously expressed target proteins from cell extracts by a bead-immobilized capturing ligand in the presence of the test compound.
HuT-78 cells (European Collection of Authenticated Cell Cultures, 88041901) were cultured according to vendor's instructions. Frozen cell pellets were homogenized in 3× pellet volumes lysis buffer (50 mM Tris-HCl, 0.4% (v/v) Igepal-CA630, 5% glycerol, 150 mM NaCl, 1.5 mM MgCl2, 25 mM NaF, 1 mM sodium vanadate, 1 mM DTT, pH 7.5, supplemented with EDTA-free protease inhibitor tablet (Roche)). The sample was dispersed using a Dounce homogenizer, kept rotating for 30 min at 4° C., and centrifuged for 10 min at 20000 gat 4° C. The supernatant was centrifuged again for 1 h at 145 000 g. The protein concentration was determined by Bradford assay (BioRad), aliquots were snap frozen in liquid nitrogen and stored at −80° C.
The capturing matrices were generated by derivatizing N-hydroxysuccinimide (NHS) activated Sepharose 4 beads (GE Healthcare) with the functionalized ligands Compound A and Compound C at a ligand density of 5 mM. Remaining NHS-groups were blocked with ethanolamine.
For the mTOR kinobeads assay the matrices were combined in a 1:1 ratio and equilibrated in DP buffer (50 mM Tris-HCl (pH 7.5), 0.4% (v/v) Igepal-CA630, 5% (v/v) glycerol, 150 mM NaCl, 1.5 mM MgCl2, 25 mM NaF, 1 mM Na3VO4, 1 mM dithiothreitol). All steps of the mTOR kinobeads assay were performed at 4° C. or on ice. The cell lysate was diluted with DP buffer to a final concentration of 5 mg/ml and a final detergent concentration of 0.4% (v/v) Igepal-CA630. For the assay 250 μg cell lysate and 2.5 μl capturing matrix per well (final assay volume: 75 μl) were incubated in the presence of test compounds in a 384-well filter plate (MultiScreenHTS HV Filter Plate, 0.45 μm, MZHVNOW50, Merck Millipore). Each plate contained 16 positive (100 μM Compound B) and 16 negative (2% v/v DMSO) control wells. Compounds were tested in a concentration-response applying 1:3 or 1:4 dilution steps for in total 11 data points. DMSO concentration was 2% (v/v). After 2 h incubation on an overhead shaker (Roto-Shake Genie, Scientific Industries Inc.) at 4° C. the non-bound fraction was removed by washing the beads with DP buffer. Proteins retained on the beads were eluted in SDS sample buffer (200 mM Tris (pH 7.4), 250 mM Trizma Base, 4% (w/v) SDS, 20% (v/v) glycerol, 0.01% (w/v) bromophenol blue, 50 mM dithiothreitol) into a collection plate (384 well polypropylene microplate, V-shape, Greiner, 781 280). Eluates were spotted on nitrocellulose membranes (400 nl per spot) using an automated pin-tool liquid transfer (Biomek FX, Beckman). After drying, the membranes were rehydrated in 20% (v/v) ethanol and blocked by incubation with Odyssey blocking buffer (LICOR, 927-40000) for 1 h at room temperature. Blocked membranes were incubated overnight at 25° C. with Odyssey blocking buffer supplemented with a specific anti-mTOR antibody (Cell Signaling, 2972; 1:500) and 0.4% TWEEN-20. Then the membranes were washed in PBST buffer and incubated for 60 minutes at room temperature with the detection antibody (IRDye™ labelled antibody from LI-COR) diluted in Odyssey blocking buffer (LICOR 927-40000) containing 0.2% TWEEN-20. Then the membranes were washed with PBST and finally rinsed twice with PBS buffer to remove residual Tween-20. The membranes were then scanned with the Odyssey® Infrared Imaging System (LI-COR Biosciences). Fluorescence signals were recorded and analyzed according to the instructions of the manufacturer. Concentration response curves were computed with the software Activity Base. All data were normalized to the mean of 16 high (negative control) and 16 low (positive control) control wells on each plate. […]

With `CC[C@H]1COCCN1c1cc(CS(C)(=O)=O)cc(-c2ccc3[nH]c(C)cc3n2)n1` [Example 22, (S)-3-ethyl-4-(6-(2-methyl-1H-pyrrolo[3,2-b]pyridin-5-yl)-4-((methylsulfonyl)methyl)pyridin-2-yl)morpholine] the IC50 [1] was 20 to 3160 nM and the IC50 [2] was 2.51 to 25.1 nM.
`CC[C@H]1COCCN1c1cc(C2(S(C)(=O)=O)CCOCC2)cc(-c2ccc3[nH]c(C)cc3n2)n1` [Example 21, (S)-3-ethyl-4-(6-(2-methyl-1H-pyrrolo[3,2-b]pyridin-5-yl)-4-(4-(methylsulfonyl)tetra-hydro-2H-pyran-4-yl)pyridin-2-yl)morpholine] was tested, and the IC50 [1] was 20 to 3160 nM and the IC50 [2] was 2.51 to 25.1 nM.
For `CC[C@@H]1COCC(=O)N1c1cc(CS(C)(=O)=O)cc(-c2ccc3[nH]c(CNC)cc3n2)n1` [Example 34, (R)-5-ethyl-4-(6-(2-((methylamino)methyl)-1H-pyrrolo[3,2-b]pyridin-5-yl)-4-((methylsulfonyl)methyl)pyridin-2-yl)morpholin-3-one], the IC50 (mTOR) was 1260 nM and the IC50 [2] was 7940 nM.
